# Measurements taken from ChEMBL document CHEMBL2074241, “Characterization of binding properties to human P-glycoprotein: development of a [3H]verapamil radioligand-binding assay” (J Pharmacol Exp Ther, 1999).
# Target: ATP-dependent translocase ABCB1 (Homo sapiens, UniProt P08183)
# Assay: TP_TRANSPORTER: inhibition of Verapamil binding in membranes from Vinblastine-induced Caco-2 cells
# Format: functional, cell membranes, Membrane
# Sequence of ATP-dependent translocase ABCB1 (P08183 whole entry): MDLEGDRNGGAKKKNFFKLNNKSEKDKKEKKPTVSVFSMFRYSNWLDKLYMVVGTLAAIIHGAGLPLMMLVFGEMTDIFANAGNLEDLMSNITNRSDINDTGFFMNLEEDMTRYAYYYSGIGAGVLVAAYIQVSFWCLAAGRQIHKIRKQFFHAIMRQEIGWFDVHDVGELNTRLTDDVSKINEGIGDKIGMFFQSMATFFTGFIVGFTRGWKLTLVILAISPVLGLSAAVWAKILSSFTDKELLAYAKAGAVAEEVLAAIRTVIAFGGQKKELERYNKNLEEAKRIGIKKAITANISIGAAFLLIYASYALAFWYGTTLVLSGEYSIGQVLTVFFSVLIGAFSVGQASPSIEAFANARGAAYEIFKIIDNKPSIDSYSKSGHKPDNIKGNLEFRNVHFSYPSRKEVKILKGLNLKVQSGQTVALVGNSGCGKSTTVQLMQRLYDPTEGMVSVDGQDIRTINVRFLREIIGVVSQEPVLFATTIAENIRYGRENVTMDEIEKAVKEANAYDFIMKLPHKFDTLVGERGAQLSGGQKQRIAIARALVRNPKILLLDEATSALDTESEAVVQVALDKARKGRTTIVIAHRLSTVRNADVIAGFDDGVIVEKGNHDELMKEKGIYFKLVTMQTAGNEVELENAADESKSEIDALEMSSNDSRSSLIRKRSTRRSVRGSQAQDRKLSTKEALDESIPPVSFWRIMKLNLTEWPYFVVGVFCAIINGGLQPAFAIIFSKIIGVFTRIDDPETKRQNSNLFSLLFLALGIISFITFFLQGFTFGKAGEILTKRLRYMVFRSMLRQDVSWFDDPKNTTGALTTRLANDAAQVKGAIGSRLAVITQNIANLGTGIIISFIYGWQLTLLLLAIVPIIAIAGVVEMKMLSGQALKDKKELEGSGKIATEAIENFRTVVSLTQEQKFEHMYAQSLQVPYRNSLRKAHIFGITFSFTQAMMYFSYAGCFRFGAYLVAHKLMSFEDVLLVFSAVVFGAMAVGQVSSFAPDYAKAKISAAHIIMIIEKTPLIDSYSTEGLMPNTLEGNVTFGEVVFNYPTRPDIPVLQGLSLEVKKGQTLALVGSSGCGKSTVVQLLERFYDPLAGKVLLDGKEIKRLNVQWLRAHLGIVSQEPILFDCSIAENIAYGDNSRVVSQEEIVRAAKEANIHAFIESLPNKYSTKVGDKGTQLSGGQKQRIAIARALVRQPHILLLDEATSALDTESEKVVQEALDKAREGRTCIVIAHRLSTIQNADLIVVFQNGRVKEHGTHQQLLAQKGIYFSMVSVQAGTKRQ
Ki (read-out: Ki1),Ki (read-out: Ki2),Structure (SMILES)
110 nM,3400 nM,COC(=O)c1ccccc1-c1c2ccc(=N)cc-2oc2cc(N)ccc12 [RHODAMINE123]
470 nM,148000 nM,CC[C@]1(O)C[C@H]2CN(CCc3c([nH]c4ccccc34)[C@@](C(=O)OC)(c3cc4c(cc3OC)N(C=O)[C@H]3[C@@](O)(C(=O)OC)[C@H](OC(C)=O)[C@]5(CC)C=CCN6CC[C@]43[C@@H]65)C2)C1 [VINCRISTINE]
